Assay results as given in patent US8440464B2, “Method for evaluation or selection of adiponectin secretion regulator” (Kao Corporation, priority 2008, dated 2013).

Test system: plasma adiponectin level
Assay: Plasma adiponectin level in REM sleep deprivation rat model (platform method), rat adiponectin ELISA
Assay type: in vivo
Conditions: SD rats, 30-hour REM sleep deprivation, oral 150 mg/kg thrice every 12 hours (300 mg/kg/day), vs. control group receiving distilled water, P<0.05 (Fisher's PLSD test)
Description: SD rats (male, 10 to 11 weeks old) were divided into groups, each containing rats with similar body weights. A cylindrical platform (diameter: 6.0 cm, height: 2.5 cm) on which a rat can take a rest was placed in a cage, and water was added to the cage so that the water level was adjusted to 1 cm below the top of the platform. Each rat was reared for one to four days in the cage (one rat/cage). Rats of a rest group were reared in cages each containing a common floorcloth (N=4 for each group). In a chlorogenic acid administration experiment, rats were reared in cages for 30-hour REM sleep deprivation. Rats of a chlorogenic acid (5-CQA, product of Sigma) administration group orally received chlorogenic acid thrice every 12 hours by means of a probe (dose: 150 mg/kg (300 mg/kg/day)). Rats of a control group received distilled water. Rats of a rest group were reared in cages each containing a common floorcloth, and received distilled water (N=6 for each group). […] The plasma adiponectin level was determined by means of a rat adiponectin ELISA kit (product of ADIPOGEN®). Specifically, plasma was 1,000-fold diluted with a dilution buffer contained in the kit, and then plasma adiponectin level was determined according to the kit protocol.

In the case of `O=C(/C=C/c1ccc(O)c(O)c1)O[C@@H]1C[C@](O)(C(=O)O)C[C@@H](O)[C@H]1O` [chlorogenic acid], the “Effect on reduction in plasma adiponectin level caused by REM sleep deprivation” value is reported as “significantly suppressed a reduction in plasma adiponectin level”.
